In patent publication US12643887B2, “Heterocyclic derivatives with cardiomyocyte proliferation activity for treatment of heart diseases” (Tongji University, priority 2019, dated 2026) one finds IC50 data, which are given here for 19 molecules.

Usually IC50 stands for the concentration needed to halve the response being measured.

The target in one assay is T1, human HIPK2 (Homo sapiens, UniProt Q9H2X6).
T1 construct: Recombinant human HIPK2 (1-640); GST (N); purchased SignalChem H04-11BG; host or cells: Sf9 insect cells
T1 sequence (Q9H2X6 1-640): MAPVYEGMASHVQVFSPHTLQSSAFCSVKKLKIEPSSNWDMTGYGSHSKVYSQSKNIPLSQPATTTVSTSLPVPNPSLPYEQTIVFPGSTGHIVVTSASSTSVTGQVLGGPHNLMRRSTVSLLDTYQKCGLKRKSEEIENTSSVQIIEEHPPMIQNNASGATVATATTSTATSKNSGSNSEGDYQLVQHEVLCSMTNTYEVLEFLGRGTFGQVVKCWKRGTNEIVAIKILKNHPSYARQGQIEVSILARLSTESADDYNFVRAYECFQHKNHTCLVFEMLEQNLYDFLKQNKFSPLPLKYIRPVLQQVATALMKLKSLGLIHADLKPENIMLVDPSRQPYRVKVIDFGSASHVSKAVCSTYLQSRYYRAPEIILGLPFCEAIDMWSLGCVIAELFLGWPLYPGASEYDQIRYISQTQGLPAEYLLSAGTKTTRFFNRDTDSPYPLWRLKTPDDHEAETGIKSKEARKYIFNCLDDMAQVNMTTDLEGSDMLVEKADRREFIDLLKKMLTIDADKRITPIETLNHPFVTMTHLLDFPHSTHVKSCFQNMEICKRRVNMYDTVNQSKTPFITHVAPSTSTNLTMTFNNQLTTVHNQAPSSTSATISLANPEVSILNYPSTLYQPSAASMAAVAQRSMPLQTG
The assay is described as follows: HIPK2 enzyme assay (ADP-Glo). Type of assay: biochemical. The procedure, abridged:
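GST-tagged HIPK2 (1-640) from Sf9, 1 nM, preincubated 30 min at 25° C with inhibitor in 40 mM Tris pH 7.5, 20 mM MgCl2. Reaction ran 90 min at 25° C with GST-MBP substrate at 0.05 mg/ml and 5 μM ATP. ADP-Glo luminescence; IC50 by four-parameter logistic fit.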

For a further assay, the target named is T2, human GSK3 beta (Homo sapiens, UniProt P49841).
T2 construct: Recombinant full-length human GSK3 beta (expressed in Sf9 insect cells with an N-terminal His tag); His (N); purchased SignalChem G09-10H; host or cells: Sf9 insect cells
T2 sequence (P49841 whole entry): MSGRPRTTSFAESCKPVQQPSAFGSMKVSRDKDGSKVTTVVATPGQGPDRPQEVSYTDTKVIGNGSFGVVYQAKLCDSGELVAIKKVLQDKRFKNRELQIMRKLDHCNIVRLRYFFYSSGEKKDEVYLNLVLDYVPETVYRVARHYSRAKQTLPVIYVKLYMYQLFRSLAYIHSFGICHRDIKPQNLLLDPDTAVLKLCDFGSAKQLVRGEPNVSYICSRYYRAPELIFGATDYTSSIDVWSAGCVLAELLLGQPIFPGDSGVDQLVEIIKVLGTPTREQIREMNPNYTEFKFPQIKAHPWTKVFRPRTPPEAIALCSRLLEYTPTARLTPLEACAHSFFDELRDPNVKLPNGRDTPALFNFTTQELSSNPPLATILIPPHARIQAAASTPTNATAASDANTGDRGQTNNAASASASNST
The assay is described as follows: GSK3 beta enzyme assay (ADP-Glo). In kind it is biochemical. As to conditions: ATP 25 μM, read-out: GSK3b IC50. The procedure, abridged: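 Full-length His-tagged human GSK3β from Sf9 cells (4 nM) preincubated 30 min at 25 °C with inhibitor in Tris pH 7.5/MgCl2/BSA/DTT, then reacted 60 min at 25 °C with 13 μM substrate peptide and 25 μM ATP. ADP measured by ADP-Glo luminescence; IC50 from four-parameter logistic fit of % inhibition.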
A general note: ADP-Glo turns the ADP formed in a reaction into a luminescent signal.

The mark [1] stands for this setting: ADP-Glo, ATP 5 μM, read-out: HIPK2 IC50.

Where two headings read alike, the source gives them in different places.

As for `CCN(C1=N/C(=C\c2ccc3c(c2)OCO3)C(=O)N1)c1ccccc1` [Example 4, (Z)-5-(benzo[d][1,3]dioxol-5-ylmethylene)-2-(ethyl(phenyl)amino)-3,5-dihydro-4H-imidazol-4-one], the concentration for half-maximal inhibition (IC50) on human HIPK2 (setting [1]) was above 10000 nM. The molecule `CC(=O)N(C1=N/C(=C\c2ccc3c(c2)OCO3)C(=O)N1)c1ccccc1` [Example 5, (Z)—N-(4-(benzo[d][1,3]dioxol-5-ylmethylene)-5-oxo-4,5-dihydro-1H-imidazol-2-yl)-N-phenylacetamide] had an IC50 against human HIPK2 of 1000 to 10000 nM. `CN(C1=N/C(=C\c2ccc3ncccc3c2)C(=O)N1)c1ccc2ncsc2c1` [Example 85, (Z)-2-(benzo[d]thiazol-6-yl(methyl)amino)-5-(quinolin-6-ylmethylene)-3,5-dihydro-4H-imidazol-4-one]: the values for the IC50 at human HIPK2 (setting [1]) and at human GSK3 beta were above 10000 nM and 1000 to 10000 nM, respectively.

Consider `CN(C1=N/C(=C\c2ccc3ncsc3c2)C(=O)N1)c1ccc2c(c1)ncn2C` [Example 86, (Z)-5-(benzo[d]thiazol-6-ylmethylene)-2-(methyl(1-methyl-1H-benzo[d]imidazol-5-yl)amino)-3,5-dihydro-4H-imidazol-4-one], for which the IC50 on human HIPK2 (setting [1]) and at human GSK3 beta was 1000 to 10000 nM in each case.

Regarding `CN(C1=N/C(=C\c2ccc3[nH]ccc3c2)C(=O)N1)c1ccc2ncsc2c1` [Example 87, (Z)-5-((1H-indol-5-yl)methylene)-2-(benzo[d]thiazol-6-yl(methyl)amino)-3,5-dihydro-4H-imidazol-4-one], the concentration for half-maximal inhibition (IC50) on human HIPK2 (setting [1]) and on human GSK3 beta was above 10000 nM in each case.

Consider `CN1C(=O)/C(=C/c2ccc3ncsc3c2)N=C1Nc1ccc2ncsc2c1` [Example 88, (Z)-2-(benzo[d]thiazol-6-ylamino)-5-(benzo[d]thiazol-6-ylmethylene)-3-methyl-3,5-dihydro-4H-imidazol-4-one], for which the IC50 at human HIPK2 (setting [1]) and on human GSK3 beta was above 10000 nM in each case. `COCCN(C1=N/C(=C\c2ccc3ncsc3c2)C(=O)N1)c1ccc2ncsc2c1` [Example 89, (Z)-2-(benzo[d]thiazol-6-yl(2-methoxyethyl)amino)-5-(benzo[d]thiazol-6-ylmethylene)-3,5-dihydro-4H-imidazol-4-one]: the half-maximal inhibitory concentration (IC50) was 100 to 1000 nM at human HIPK2 (setting [1]) and 1000 to 10000 nM on human GSK3 beta. The like results for `Cc1nc2ccc(NC3=N/C(=C\c4ccc5ncsc5c4)C(=O)N3)cc2s1` [Example 90, (Z)-5-(benzo[d]thiazol-6-ylmethylene)-2-((2-methylbenzo[d]thiazol-6-yl)amino)-3,5-dihydro-4H-imidazol-4-one] were, in that order, below 100 nM and above 10000 nM. Turning to `CC(=O)N(C1=N/C(=C\c2ccc3ncsc3c2)C(=O)N1)c1ccc2ncsc2c1` [Example 91, (Z)—N-(benzo[d]thiazol-6-yl)-N-(4-(benzo[d]thiazol-6-ylmethylene)-5-oxo-4,5-dihydro-1H-imidazol-2-yl)acetamide], the IC50 was below 100 nM on human HIPK2 (setting [1]) and above 10000 nM on human GSK3 beta. For `O=C1NC(Nc2ccc3ncsc3c2)=N/C1=C\c1cncs1` [Example 92, (Z)-2-(benzo[d]thiazol-6-ylamino)-5-(thiazol-5-ylmethylene)-3,5-dihydro-4H-imidazol-4-one], in that order: 100 to 1000 nM and 100 to 1000 nM. For `Cn1cnc2ccc(NC3=N/C(=C\c4ccc5ncsc5c4)C(=O)N3)cc21` [Example 93, (Z)-5-(benzo[d]thiazol-6-ylmethylene)-2-((1-methyl-1H-benzo[d]imidazol-6-yl)amino)-3,5-dihydro-4H-imidazol-4-one], in that order: 100 to 1000 nM and 100 to 1000 nM.

Regarding `O=C1NC(Nc2ccc3ncsc3c2)=N/C1=C\c1ccc2nccnc2c1` [Example 94, (Z)-2-(benzo[d]thiazol-6-ylamino)-5-(quinoxalin-6-ylmethylene)-3,5-dihydro-4H-imidazol-4-one], the IC50 on human HIPK2 (setting [1]) and at human GSK3 beta was above 10000 nM in each case.

As to `O=C1NC(Nc2ccc3ncsc3c2)=N/C1=C\c1ccc2cn[nH]c2c1` [Example 95, (Z)-5-((1H-indazol-6-yl)methylene)-2-(benzo[d]thiazol-6-ylamino)-3,5-dihydro-4H-imidazol-4-one], the IC50 on human HIPK2 (setting [1]) and on human GSK3 beta was above 10000 nM in each case. For the molecule `O=C1NC(=S)N/C1=C\c1ccc2sccc2c1` [Example 96, (Z)-5-(benzo[b]thiophen-5-ylmethylene)-2-thioxoimidazolidin-4-one], the IC50 was above 10000 nM at human HIPK2 (setting [1]) and 1000 to 10000 nM on human GSK3 beta. Take `O=C1NC(Nc2ccc3nc[nH]c3c2)=N/C1=C\c1ccc2ncsc2c1` [Example 97, (Z)-2-((1H-benzo[d]imidazol-6-yl)amino)-5-(benzo[d]thiazol-6-ylmethylene)-3,5-dihydro-4H-imidazol-4-one]: the IC50 was below 100 nM on human HIPK2 (setting [1]) and 1000 to 10000 nM on human GSK3 beta. For `Nc1ccc(NC2=N/C(=C\c3ccc4ncsc4c3)C(=O)N2)cc1` [Example 98, (Z)-2-((4-aminophenyl)amino)-5-(benzo[d]thiazol-6-ylmethylene)-3,5-dihydro-4H-imidazol-4-one], in that order: 100 to 1000 nM and 100 to 1000 nM.

Consider `O=C1NC(N(Cc2ccccc2)c2ccc3ncsc3c2)=N/C1=C\c1ccc2ncsc2c1` [Example 99, (Z)-2-(benzo[d]thiazol-6-yl(benzyl)amino)-5-(benzo[d]thiazol-6-ylmethylene)-3,5-dihydro-4H-imidazol-4-one], for which the IC50 was 100 to 1000 nM at human HIPK2 (setting [1]) and above 10000 nM at human GSK3 beta. For `CC(C)Nc1nc2ccc(NC3=N/C(=C\c4ccc5ncsc5c4)C(=O)N3)cc2s1` [Example 100, (Z)-5-(benzo[d]thiazol-6-ylmethylene)-2-((2-(isopropylamino)benzo[d]thiazol-6-yl)amino)-3,5-dihydro-4H-imidazol-4-one], in that order: 100 to 1000 nM and 100 to 1000 nM. Regarding `O=C1NC(Nc2ccc3sccc3c2)=N/C1=C\c1ccc2ncsc2c1` [Example 101, (Z)-2-(benzo[b]thiophen-5-ylamino)-5-(benzo[d]thiazol-6-ylmethylene)-3,5-dihydro-4H-imidazol-4-one], the IC50 at human HIPK2 (setting [1]) and at human GSK3 beta was above 10000 nM throughout.
